How the values were obtained:
pSTAT5/GM-CSF = pSTAT5/GM-CSF cellular assay (JAK2 selectivity); format: cell-based; conditions: for Selectivity fold (TYK2/JAK2): pSTAT5/GM-CSF IC50 over pSTAT4/IL-12 IC50
[1] = tested on: JAK2, TYK2/p-STAT4 (Tyr693) activated by IL-12 in NK-92 cell line; assay: IL-12-JAK2, TYK2/p-STAT4 (Tyr693) inhibition IC50 cellular assay; format: cell-based; conditions: for Selectivity fold (TYK2/JAK2): Cellular assay, pSTAT5/GM-CSF IC50 vs pSTAT4/IL-12 IC50; for IC50: NK92, Cellular assay, read-out: pSTAT4/IL-12 IC50
How it was run: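 NK-92 cells were starved overnight without IL-2 and preincubated 1 h at 37° C with compound (8 doses, 10000–0.61 nM, 4-fold, 0.2% DMSO). They were then stimulated with IL-12 (40 ng/ml final) for 30 min. Lysate p-STAT4 (Tyr693) was read by AlphaLISA SureFire; IC50 from four-parameter logistic fit.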

[2] = target: T1, TYK2-JH2 (aa 575-869, in-house) protein (Homo sapiens, UniProt P29597); assay: TYK2-JH2 biochemical assay (HTRF probe displacement); format: binding; conditions: Biochemical assay; read-out: TYK2-JH2 IC50
T1 construct: TYK2-JH2 (aa 575-869, in-house) protein; made in house
How it was run: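 Recombinant TYK2-JH2 (0.2 nM) was pre-incubated 0.5 h at room temperature with compounds (10 doses, 5-fold dilution; 500× DMSO stocks from 500 uM) in 20 mM HEPES pH 7.5, 10 mM MgCl2, 0.005% BSA, 2 mM DTT, 0.015% Brij-35. Probe displacement was read by HTRF (ex337, em620/665 nm); IC50 from four-parameter logistic fit.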

T1 sequence (P29597 575-869): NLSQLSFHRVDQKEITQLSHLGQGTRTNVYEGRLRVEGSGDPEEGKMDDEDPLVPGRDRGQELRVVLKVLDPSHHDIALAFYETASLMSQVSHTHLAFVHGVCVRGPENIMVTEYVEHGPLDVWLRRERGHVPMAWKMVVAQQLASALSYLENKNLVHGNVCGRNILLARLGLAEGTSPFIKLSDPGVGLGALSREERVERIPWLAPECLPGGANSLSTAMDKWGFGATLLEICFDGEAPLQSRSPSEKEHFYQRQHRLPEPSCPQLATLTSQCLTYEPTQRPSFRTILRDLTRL

SMILES	IC50 (pSTAT5/GM-CSF)	Selectivity fold (TYK2/JAK2) [1]	IC50 [1]	IC50 [2]	Selectivity fold (TYK2/JAK2) (pSTAT5/GM-CSF)
COCC1CN(c2ccc(-c3cnc(NC(C)=O)cc3Nc3cc(OC(C)C)cc(S(C)(=O)=O)n3)nc2)CCO1 (stereo not shown) [Example B18, N-(4′-((4-isopropoxy-6-(methylsulfonyl)pyridin-2-yl)amino)-5-(2-(methoxymethyl)morpholino)-[2,3′-bipyridin]-6′-yl)acetamide]	> 10000 nM	>9523 fold	1.05 nM	0.036 nM	
CC(=O)Nc1cc(Nc2cccc(S(C)(=O)=O)n2)c(-c2cc(N3CCOCC3)n(C)n2)cn1 [Example O1, N-(5-(1-methyl-5-morpholino-1H-pyrazol-3-yl)-4-((6-(methylsulfonyl)pyridin-2-yl)amino)pyridin-2-yl)acetamide]	1210 nM		0.414 nM	0.017 nM	2929 fold
CC(=O)Nc1cc(Nc2cc(C)cc(S(C)(=O)=O)n2)c(-c2ccc(F)cn2)cn1 [Example F17, N-(5-fluoro-4′-((4-methyl-6-(methylsulfonyl)pyridin-2-yl)amino)-[2,3′-bipyridin]-6′-yl)acetamide]	> 10000 nM	>8000 fold	1.25 nM	0.054 nM	
CC(=O)Nc1cc(Nc2cc(O[C@H]3C[C@@H](O)C3)cc(S(C)(=O)=O)n2)c(-c2ccc(C(C)(C)O)cn2)cn1 [Example H28, N-(4′-((4-(cis-3-hydroxycyclobutoxy)-6-(methylsulfonyl)pyridin-2-yl)amino)-5-(2-hydroxypropan-2-yl)-[2,3′-bipyridin]-6′-yl)acetamide]	> 10000 nM	>342 fold	29.2 nM	0.03 nM	
CC(=O)Nc1cc(Nc2cccc(S(C)(=O)=O)c2)c(-c2ccc(N3C[C@@H](C)O[C@@H](C)C3)cn2)cn1 [Example C3, N-(5-((cis)-2,6-dimethylmorpholino)-4′-((3-(methylsulfonyl)phenyl)amino)-[2,3′-bipyridin]-6′-yl)acetamide]	> 10000 nM	>1721 fold	5.81 nM	0.032 nM	
CCS(=O)(=O)c1cc(OC(C)C)cc(Nc2cc(NC(C)=O)ncc2-c2ccc(C(C)(C)O)cn2)n1 [Example H36, N-(4′-((6-(ethylsulfonyl)-4-isopropoxypyridin-2-yl)amino)-5-(2-hydroxypropan-2-yl)-[2,3′-bipyridin]-6′-yl)acetamide]	> 10000 nM	>5128 fold	1.95 nM	0.022 nM	
CC(=O)Nc1cc(Nc2cc(OC(F)(F)F)cc(S(C)(=O)=O)c2)c(-c2ccn(C)n2)cn1 [Example J10, N-(5-(1-methyl-1H-pyrazol-3-yl)-4-((3-(methylsulfonyl)-5-(trifluoromethoxy)phe-nyl)amino)pyridin-2-yl)acetamide]	> 10000 nM		6.34 nM	0.05 nM	>1577 fold
COCc1ccc(-c2cnc(NC(C)=O)cc2Nc2cc(COC)cc(S(C)(=O)=O)n2)nc1 [Example E9, N-(5-(methoxymethyl)-4′-((4-(methoxymethyl)-6-(methylsulfonyl)pyridin-2-yl)amino)-[2,3′-bipyridin]-6′-yl)acetamide]	> 10000 nM	>19960 fold	0.504 nM	0.022 nM	
CCOc1cc(Nc2cc(NC(C)=O)ncc2-c2cc(C)n(C)n2)nc(S(C)(=O)=O)c1 [Example N7, N-(5-(1,5-dimethyl-1H-pyrazol-3-yl)-4-((4-ethoxy-6-(methylsulfonyl)pyridin-2-yl)amino)pyridin-2-yl)acetamide]	> 10000 nM		1.43 nM	0.024 nM	>6993 fold
CO[C@H]1CCCN(c2cc(Nc3cc(NC(C)=O)ncc3-c3ccc4c(n3)OCC(C)(C)O4)nc(S(C)(=O)=O)c2)C1 [Example Q65, (S)-N-(5-(2,2-dimethyl-2,3-dihydro-[1,4]dioxino[2,3-b]pyridin-6-yl)-4-((4-(3-methoxypiperidin-1-yl)-6-(methylsulfonyl)pyridin-2-yl)amino)pyridin-2-yl)acetamide]	1640 nM		0.685 nM	0.029 nM	2397 fold
COc1cc(S(C)(=O)=O)nc(Nc2cc(NC(C)=O)ncc2-c2ccc(F)cn2)c1OC [Example F23, N-(4′-((3,4-dimethoxy-6-(methylsulfonyl)pyridin-2-yl)amino)-5-fluoro-[2,3′-bipyridin]-6′-yl)acetamide]	> 10000 nM	>9345 fold	1.07 nM	0.02 nM	
CC(=O)Nc1cc(Nc2cc(N3CCOC[C@@H]3C)cc(S(C)(=O)=O)n2)c(-c2ccc(N3C[C@@H](C)O[C@@H](C)C3)cn2)cn1 [Example C23, N-(5-(cis-2,6-dimethylmorpholino)-4′-((4-((S)-3-methylmorpholino)-6-(methylsulfon-yl)pyridin-2-yl)amino)-[2,3′-bipyridin]-6′-yl)ace-tamide]	2600 nM	4126 fold	0.63 nM	0.022 nM	
CC(=O)Nc1cc(Nc2cc(OC(C)C)cc(S(C)(=O)=O)n2)c(-c2ccn(C(C)C)n2)cn1 [Example M23, N-(4-((4-isopropoxy-6-(methylsulfonyl)pyridin-2-yl)amino)-5-(1-isopropyl-1H-pyrazol-3-yl)pyridin-2-yl)acetamide]	3750 nM		1.08 nM	0.031 nM	3471 fold
CC(=O)Nc1cc(Nc2cc(OC[C@@H](C)O)cc(S(C)(=O)=O)c2)c(-c2ccn(C)n2)cn1 [Example J57, (R)-N-(4-((3-(2-hydroxypropoxy)-5-(methylsulfonyl)phenyl)amino)-5-(1-methyl-1H-pyrazol-3-yl)pyridin-2-yl)acetamide]	> 10000 nM		15.3 nM	0.045 nM	>653 fold
CCOc1cc(Nc2cc(NC(C)=O)ncc2-c2ccc(C(C)(C)O)cn2)nc(S(C)(=O)=O)c1 [Example H33, N-(4′-((4-ethoxy-6-(methylsulfonyl)pyridin-2-yl)amino)-5-(2-hydroxypropan-2-yl)-[2,3′-bipyridin]-6′-yl)acetamide]	> 10000 nM	>22371 fold	0.777 nM	0.019 nM	
CC(=O)Nc1cc(Nc2cc(-c3cnccc3C)cc(S(C)(=O)=O)n2)c(-c2ccc3c(n2)OCC(C)(C)O3)cn1 [Example Q62, N-(5-(2,2-dimethyl-2,3-dihydro-[1,4]dioxino[2,3-b]pyridin-6-yl)-4-((4-methyl-6′-(methylsulfonyl)-[3,4′-bipyridin]-2′-yl)amino)pyridin-2-yl)acetamide]	> 10000 nM		1.79 nM	0.047 nM	>5586 fold
CO[C@H]1C[C@@H](c2cc(Nc3cc(NC(C)=O)ncc3-c3ccc4c(n3)OCC(C)(C)O4)nc(S(C)(=O)=O)c2)C1 [Example Q53, N-(5-(2,2-dimethyl-2,3-dihydro-[1,4]dioxino[2,3-b]pyridin-6-yl)-4-((4-((cis)-3-methoxycyclobutyl)-6-(methylsulfonyl)pyridin-2-yl)amino)pyridin-2-yl)acetamide]	> 10000 nM		0.581 nM	0.047 nM	>17211 fold
CC(=O)Nc1cc(Nc2cc(C)cc(S(C)(=O)=O)n2)c(-c2ccc(C(C)(C)N)cn2)cn1 [Example A20, N-(5-(2-aminopropan-2-yl)-4′-((4-methyl-6-(methylsulfonyl)pyridin-2-yl)amino)-[2,3′-bipyridin]-6′-yl)acetamide]	2380 nM	2124 fold	1.12 nM	0.03 nM	
CC(=O)Nc1cc(Nc2cc(OC(C)C)cc(S(C)(=O)=O)n2)c(-c2ccc3c(n2)OCO3)cn1 [Example Q2, N-(5-([1,3]dioxolo[4,5-b]pyridin-5-yl)-4-((4-isopropoxy-6-(methylsulfonyl)pyridin-2-yl)amino)pyridin-2-yl)acetamide]	> 10000 nM		1.7 nM	0.021 nM	>5882 fold
COCCOc1ccc(-c2cnc(NC(C)=O)cc2Nc2cc(OC(C)C)cc(S(C)(=O)=O)n2)nc1 [Example D6, N-(4′-((4-isopropoxy-6-(methylsulfonyl)pyridin-2-yl)amino)-5-(2-methoxyethoxy)-[2,3′-bipyridin]-6′-yl)acetamide]	> 10000 nM	>16863 fold	0.593 nM	0.025 nM	
CC(=O)Nc1cc(Nc2cc(OC(C)C)cc(S(C)(=O)=O)n2)c(-c2cccc(C#N)n2)cn1 [Example A16, N-(6-cyano-4′-((4-isopropoxy-6-(methylsulfonyl)pyridin-2-yl)amino)-[2,3′-bipyridin]-6′-yl)acetamide]	> 10000 nM	>14992 fold	0.667 nM	0.021 nM	
CC(=O)Nc1cc(Nc2cc(C)cc(S(C)(=O)=O)n2)c(-c2cc3n(n2)CCOC3)cn1 [Example Q20, N-(5-(6,7-dihydro-4H-pyrazolo[5,1-c][1,4]oxazin-2-yl)-4-((4-methyl-6-(methylsulfonyl)pyridin-2-yl)amino)pyridin-2-yl)acetamide]	1770 nM		0.16 nM	0.022 nM	11043 fold
